Measurements from patent publication US10004730B2, “Small molecules targeting androgen receptor nuclear localization and/or level in prostate cancer” (University of Pittsburgh-Of the Commonwealth System of …, priority 2011, dated 2018).

Experiments:
[1] = test system: endogenous AR; assay: Endogenous AR nuclear localization in C4-2 cells by immunofluorescence; assay type: cell-based; details: 300 nM, hormone-free
Procedure: (§1) FIGS. 3A and 3B. […] FIG. 3A. […] Localization was assessed by fluorescence microscopy 4 hours after treatment. FIG. 3B.
(§2) FIGS. 6A, 6B, 6C and 6D. FIG. 6A. Structures of compounds SID 14730725 (3-(4-Ethoxy-phenyl)-6,7-dihydro-5H-pyrrolo[1,2-a]imidazole), SID 14742211 (3-(4-Chloro-phenyl)-6,7-dihydro-5H-pyrrolo[1,2-a]imidazole) and SID 3712502 (2-[(3,5-dimethyl-1,2-oxazol-4-yl)methylsulfanyl]-1-[4-(2,3-dimethylphenyl)piperazin-1-yl]ethanone). FIG. 6B. Effect of SID 14730725 and SID 3712502 at indicated concentrations (uM) on nuclear localization of AR in castration-resistant C4-2 prostate cancer cells cultured in complete RPMI media with 10% FBS. C4-2 cells were transfected with GFP-AR and subcellular localization of GFP-AR was determined after overnight treatment using fluorescent microscopy. FIG. 6C. Quantitative analysis of results in FIG. 6B. The percent of transfected cells displaying predominant nuclear localization of GFP-AR at in the presence of various concentrations of SID 14730725 and SID 3712502 were determined. FIG. 6D. SID 14730725 inhibited endogenous AR nuclear localization in C4-2 cells. Endogenous AR was detected by immunofluorescent staining using AR antibody N-20 (Santa Cruz Biotechnology). Nuclei were stained with Hoechst.
(§3) Hsp90 plays an important role in ligand-induced AR nuclear translocation. […]

[2] = molecular target: T1, GFP-AR (Homo sapiens, UniProt P10275); assay: Localization of transiently transfected GFP-AR by fluorescence microscopy; assay type: cell-based; details: for GFP-AR localization: 1 nM
T1 construct: expressed in transfected cells; also PC3 and LNCaP (transient)
T1 sequence (P10275 1-920): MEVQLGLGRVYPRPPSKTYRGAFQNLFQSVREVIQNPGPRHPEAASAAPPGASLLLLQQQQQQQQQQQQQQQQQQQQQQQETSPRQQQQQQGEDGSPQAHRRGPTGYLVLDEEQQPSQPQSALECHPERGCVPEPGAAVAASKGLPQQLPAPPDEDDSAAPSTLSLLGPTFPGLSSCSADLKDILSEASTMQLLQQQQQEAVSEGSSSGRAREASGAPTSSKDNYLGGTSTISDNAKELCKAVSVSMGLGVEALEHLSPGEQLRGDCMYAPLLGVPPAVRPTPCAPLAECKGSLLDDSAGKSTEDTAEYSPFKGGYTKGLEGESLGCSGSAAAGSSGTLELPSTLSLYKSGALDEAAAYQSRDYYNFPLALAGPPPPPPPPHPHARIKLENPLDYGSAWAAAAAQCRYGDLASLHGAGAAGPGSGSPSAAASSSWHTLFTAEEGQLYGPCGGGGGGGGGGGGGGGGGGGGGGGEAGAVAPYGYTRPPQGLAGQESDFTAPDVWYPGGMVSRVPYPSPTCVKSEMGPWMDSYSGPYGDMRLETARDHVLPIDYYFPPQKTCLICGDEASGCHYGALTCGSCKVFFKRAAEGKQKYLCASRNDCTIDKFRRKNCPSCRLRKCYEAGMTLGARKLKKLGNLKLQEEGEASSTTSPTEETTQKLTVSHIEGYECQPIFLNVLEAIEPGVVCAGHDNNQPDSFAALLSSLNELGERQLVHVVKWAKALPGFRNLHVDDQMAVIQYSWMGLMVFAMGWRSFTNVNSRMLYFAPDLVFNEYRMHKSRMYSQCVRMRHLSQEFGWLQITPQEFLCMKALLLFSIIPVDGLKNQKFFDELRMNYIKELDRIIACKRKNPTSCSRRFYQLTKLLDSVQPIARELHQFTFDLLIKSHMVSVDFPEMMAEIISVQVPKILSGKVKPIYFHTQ
Procedure: FIGS. 2A and 2B. Localization of GFP-AR in AR-negative PC3, androgen-sensitive LNCaP, and CRPC C4-2 cells. […] PC3, LNCaP, and C4-2 cells were transfected with GFP-AR and localization was assessed in ligand-free conditions or in the presence of mibolerone by fluorescence microscopy within 24 hours of transfection. The results in FIG. 2B are from five transfections for each cell line in the absence of androgen. At least 50 cells were counted after each transfection. Error bars represent ±SEM.
as §1
FIGS. 6A, 6B, 6C and 6D. FIG. 6A. […] FIG. 6B. […] C4-2 cells were transfected with GFP-AR and subcellular localization of GFP-AR was determined after overnight treatment using fluorescent microscopy. FIG. 6C. Quantitative analysis of results in FIG. 6B. […] FIG. 6D. […] Endogenous AR was detected by immunofluorescent staining using AR antibody N-20 (Santa Cruz Biotechnology). Nuclei were stained with Hoechst.
A prerequisite for AR transcriptional activity is its nuclear localization. To determine whether the subcellular localization of AR was altered during the progression to castration-resistance, AR-negative PC3 prostate cancer cells, androgen-sensitive LNCaP cells and castration-resistant C4-2 cells were transfected with AR tagged to green fluorescent protein (GFP) and localization was assessed by fluorescence microscopy in hormone-free conditions.
Hsp90 plays an important role in ligand-induced AR nuclear translocation. […] To determine if the effect of hsp90 inhibition on endogenous AR in C4-2 cells was similar to its effect on transfected GFP-AR, immunofluorescence experiments were performed.

[3] = molecular target: T2, endogenous AR (Homo sapiens, UniProt P10275, T878A); assay: Endogenous AR nuclear localization in C4-2 cells by immunofluorescence; assay type: cell-based; details: AR antibody N-20
T2 construct: endogenous in cells; host or cells: C4-2
T2 sequence (P10275 whole entry T878A): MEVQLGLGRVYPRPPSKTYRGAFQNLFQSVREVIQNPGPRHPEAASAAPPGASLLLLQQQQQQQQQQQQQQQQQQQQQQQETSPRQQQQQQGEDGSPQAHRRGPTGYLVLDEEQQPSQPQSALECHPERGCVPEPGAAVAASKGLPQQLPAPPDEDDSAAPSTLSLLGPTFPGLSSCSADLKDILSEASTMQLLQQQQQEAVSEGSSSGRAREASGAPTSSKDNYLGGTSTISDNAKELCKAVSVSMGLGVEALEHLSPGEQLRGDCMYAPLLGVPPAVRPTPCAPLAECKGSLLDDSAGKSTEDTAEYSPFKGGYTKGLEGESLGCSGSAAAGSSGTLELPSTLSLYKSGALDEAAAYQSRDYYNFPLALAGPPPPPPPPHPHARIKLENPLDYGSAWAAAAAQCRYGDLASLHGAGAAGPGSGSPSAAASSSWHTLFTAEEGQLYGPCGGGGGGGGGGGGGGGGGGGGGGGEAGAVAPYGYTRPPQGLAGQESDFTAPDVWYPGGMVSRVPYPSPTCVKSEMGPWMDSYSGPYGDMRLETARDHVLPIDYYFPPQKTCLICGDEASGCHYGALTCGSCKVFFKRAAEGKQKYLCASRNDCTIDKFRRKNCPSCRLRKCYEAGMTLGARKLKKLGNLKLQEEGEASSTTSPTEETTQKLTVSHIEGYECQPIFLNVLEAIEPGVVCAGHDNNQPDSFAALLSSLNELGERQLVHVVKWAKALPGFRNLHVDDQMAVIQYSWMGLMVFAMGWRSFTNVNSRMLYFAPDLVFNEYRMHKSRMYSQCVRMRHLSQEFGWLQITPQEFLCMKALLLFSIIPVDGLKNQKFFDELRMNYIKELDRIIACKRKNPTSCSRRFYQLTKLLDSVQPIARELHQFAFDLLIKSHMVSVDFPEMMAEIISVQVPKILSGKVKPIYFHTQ
Procedure: as §1, §2, §3

[4] = molecular target: T3, GFP-ER (Homo sapiens, UniProt P03372); assay: GFP-ER nuclear localization in transfected C4-2 cells; assay type: cell-based; details: 24 hours
T3 construct: expressed in transfected cells; host or cells: C4-2
T3 sequence (P03372 whole entry): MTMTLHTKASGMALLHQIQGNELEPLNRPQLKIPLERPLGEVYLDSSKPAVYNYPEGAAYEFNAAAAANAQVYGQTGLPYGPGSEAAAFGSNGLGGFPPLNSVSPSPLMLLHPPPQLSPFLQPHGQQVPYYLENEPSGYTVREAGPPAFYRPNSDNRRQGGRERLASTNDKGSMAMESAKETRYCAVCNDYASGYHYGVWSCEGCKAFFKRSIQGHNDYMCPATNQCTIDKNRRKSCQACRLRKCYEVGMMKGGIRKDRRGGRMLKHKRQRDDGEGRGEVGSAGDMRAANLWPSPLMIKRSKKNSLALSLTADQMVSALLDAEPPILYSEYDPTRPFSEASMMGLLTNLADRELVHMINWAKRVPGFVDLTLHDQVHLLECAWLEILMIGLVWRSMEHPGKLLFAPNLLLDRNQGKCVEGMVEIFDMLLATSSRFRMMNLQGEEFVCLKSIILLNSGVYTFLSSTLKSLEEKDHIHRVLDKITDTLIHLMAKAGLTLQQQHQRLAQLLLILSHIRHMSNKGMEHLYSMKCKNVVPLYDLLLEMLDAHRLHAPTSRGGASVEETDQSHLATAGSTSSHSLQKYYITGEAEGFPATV
Procedure: (§4) FIG. 7. The effect of SID 14730725 and SID 3712502 on nuclear localization of GFP-ER (Top panel) and GFP-GR (Bottom panel) in C4-2 cells. C4-2 cells were transfected with GFP-ER or GFP-GR overnight. The following day the cells were treated with different concentrations (uM) of the small molecules. The cells transfected with GFP-GR were co-treated with 0.5 μM Dexamethasone. Cells were imaged 24 hours after the treatment with the small molecules.

[5] = molecular target: T4, GFP-GR (Homo sapiens, UniProt P04150); assay: GFP-GR nuclear localization in transfected C4-2 cells; assay type: cell-based; details: co-treated with 0.5 μM Dexamethasone, 24 hours
T4 construct: expressed in transfected cells; host or cells: C4-2
T4 sequence (P04150 whole entry): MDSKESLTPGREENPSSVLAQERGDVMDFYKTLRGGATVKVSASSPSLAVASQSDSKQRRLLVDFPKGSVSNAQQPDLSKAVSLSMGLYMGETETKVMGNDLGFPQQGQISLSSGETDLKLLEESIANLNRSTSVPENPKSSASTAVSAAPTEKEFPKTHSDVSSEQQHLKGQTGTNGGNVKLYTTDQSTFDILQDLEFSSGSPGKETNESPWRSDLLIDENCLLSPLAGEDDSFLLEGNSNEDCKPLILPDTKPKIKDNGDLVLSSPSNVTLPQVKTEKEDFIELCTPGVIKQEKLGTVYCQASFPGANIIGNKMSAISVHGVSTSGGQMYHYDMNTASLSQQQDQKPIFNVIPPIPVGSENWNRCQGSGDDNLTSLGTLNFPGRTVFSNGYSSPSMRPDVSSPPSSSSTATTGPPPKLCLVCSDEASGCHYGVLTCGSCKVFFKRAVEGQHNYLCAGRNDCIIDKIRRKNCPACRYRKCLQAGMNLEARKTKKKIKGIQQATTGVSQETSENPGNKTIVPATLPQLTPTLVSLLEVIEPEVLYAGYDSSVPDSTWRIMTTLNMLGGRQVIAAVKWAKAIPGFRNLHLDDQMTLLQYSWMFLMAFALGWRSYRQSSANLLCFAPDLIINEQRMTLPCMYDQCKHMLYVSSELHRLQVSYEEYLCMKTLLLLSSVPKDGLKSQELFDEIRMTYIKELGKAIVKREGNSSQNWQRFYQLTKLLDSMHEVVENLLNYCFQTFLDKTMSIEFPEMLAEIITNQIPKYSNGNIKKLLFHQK
Procedure: as §4

[6] = test system: PC3 cells; assay: Cell survival, crystal violet staining, PC3; assay type: cell-based; details: 48 hrs
Procedure: (§5) FIGS. 8A and 8B. Effect of SID 14730725 and SID 3712502 on survival of PC3 (FIG. 8A) and C4-2 cells (FIG. 8B). PC3 or C4-2 cells were plated in 12-well plates at 2,500 cell per well in RPMI 1640 complete medium. After 24 hrs, the cells were treated with SID 14730725 or SID 3712502 at the indicated concentrations for 48 hrs. The wells were washed with PBS thrice and fixed in 0.5% crystal Violet in methanol. C=control; treated with vehicle DMSO.

[7] = test system: C4-2 cells; assay: Cell survival, crystal violet staining, C4-2; assay type: cell-based; details: 48 hrs
Procedure: as §5

[8] = test system: castration resistant C4-2 xenograft tumors; assay: C4-2 xenograft tumors in castrated SCID mice; assay type: in vivo
Procedure: FIGS. 9A and 9B. FIG. 9A. SID 14730725 inhibits the growth of castration resistant C4-2 xenograft tumors. C4-2 tumors were established by sc injection of 1×10^6 cells resuspended in 0.25 ml RPMI complete media mixed with 0.25 ml of Matrigel into young adult male SCID mice. SCID mice were castrated and randomized when C4-2 tumor volume reach ˜200 ul. Mice received s.c. delivery of SID 14730725 (50 mg/Kg body weight) or vehicle control (corn oil) every other day for 2 weeks, beginning 4 days after castration. Each group consisted of 7 mice. Tumor volumes were measured using micro-calipers and calculated using the formula (length×width^2)/2. FIG. 9B. Body weight of animals was measured every other day. Bars represent the mean±SEM; **p<0.01; Red lines represent data from the animals treated with SID 14730725.

[9] = molecular target: T1, GFP-AR; assay: GFP-AR localization in stably transfected C4-2-GFP-AR sublines / high throughput screen assay; assay type: cell-based; details: 5 uM, 24 hours; C4-2 stably transfected with GFP-AR; charcoal-stripped FBS medium
Procedure: The images were acquired 24 hours after the treatment of docetaxel at 5 uM or vehicle DMSO. C4-2 cells stably transfected with GFP-AR were changed to phenol red-free RPMI with 10% charcoal-stripped FBS medium before the addition of docetaxel. Nuclei of the cells were stained with Hoechst dye. Images were acquired by fluorescent microscopy.
Localization of GFP-AR signal was assessed by fluorescence microscopy overnight after treatment.
The C4-2-GFP-AR subclone was cultured in 384-well plates in complete RPMI media. We used regular complete media in high throughput assay because it contains castration levels of androgens. […] Images of GFP signals and Hoechst signals were acquired into separate channels on a Cellomics ArrayScan® V^TI system. Both nuclear and cytoplasmic GFP signals were quantified with the ArrayScan V^TI, which uses an image-based auto-focus system, and has the capability of imaging up to six excitation and emission channels. […] The Cellomics compartmental analysis algorithm was used to quantify the relative distribution of the GFP-AR between nuclear and cytoplasmic cellular compartments. […] The mask was eroded to reduce cytoplasmic contamination within the nuclear area, and the reduced mask was used to quantify the amount of target channel GFP fluorescence within the nucleus. […]

[10] = molecular target: AR (Homo sapiens, UniProt P10275); details: reported in earlier studies; cited from earlier work

SMILES: C=CCNC1=C2C[C@@H](C)C[C@H](OC)[C@H](O)[C@@H](C)/C=C(\C)[C@H](OC(N)=O)[C@@H](OC)/C=C\C=C(/C)C(=O)NC(=CC1=O)C2=O [17-AAG, reference compound]
- endogenous AR nuclear expression [1]: a decrease in nuclear AR expression was observed

SMILES: CCOc1ccc(-c2cnc3n2CCC3)cc1 [SID 14730725, 3-(4-Ethoxy-phenyl)-6,7-dihydro-5H-pyrrolo[1,2-a]imidazole]
- blocking AR nuclear localization, dependence on androgen level ([2]; absence or very low levels of androgens): more effective in blocking AR nuclear localization in the absence or in the presence of very low levels of androgens
- GFP-AR nuclear localization ([2]; transfected C4-2 cells, complete RPMI with 10% FBS, overnight treatment): effectively inhibited
- endogenous AR nuclear localization [3]: inhibited
- localization of GFP-ER [4]: no effect
- localization of GFP-GR [5]: no effect
- cytotoxicity [6]: little or no cytotoxicity
- cytotoxicity [7]: little or no cytotoxicity
- body weight of injected mice ([8]; 50 mg/Kg s.c. every other day): did not affect the body weight
- growth of C4-2 xenograft tumor ([8]; 50 mg/Kg s.c. every other day for 2 weeks, castrated SCID mice): able to inhibit the growth of a C4-2 xenograft tumor with statistical significance

SMILES: CC(=O)O[C@@]12CO[C@@H]1C[C@H](O)[C@@]1(C)C(=O)[C@H](O)C3=C(C)[C@@H](OC(=O)[C@H](O)[C@@H](NC(=O)OC(C)(C)C)c4ccccc4)C[C@@](O)([C@@H](OC(=O)c4ccccc4)[C@H]21)C3(C)C [docetaxel]
- AR nuclear localization in castration-resistant C4-2 cells [9]: no significant effect
- AR nuclear translocation [10]: can inhibit androgen-dependent AR nuclear translocation

SMILES: C[C@@H]1CC2=CC(=O)CC[C@@H]2[C@H]2CC[C@@]3(C)[C@@H](CC[C@]3(C)O)[C@@H]21 [mibolerone]
- GFP-AR localization ([2]; C4-2 cells): induced complete nuclear localization
- GFP-AR localization ([2]; LNCaP cells): induced complete nuclear localization
- GFP-AR localization ([2]; PC3 cells): induced complete nuclear localization

SMILES: C[C@@H]1C[C@H]2O[C@@H]2/C=C\C=C\C(=O)Cc2c(Cl)c(O)cc(O)c2C(=O)O1 [radicicol]
- nuclear localization of GFP-AR ([2]; C4-2 cells, data not shown): prevented
